Test results as given in ChEMBL document CHEMBL4038308, “Lipophosphonoxins II: Design, Synthesis, and Properties of Novel Broad Spectrum Antibacterial Agents” (J Med Chem, 2017).
Converted amounts (≈) assume the structure as drawn.

Legend:
Escherichia coli [1] = experiment: Antibacterial activity against Escherichia coli CCM 3954 after 24 hrs by microdilution method; format: functional; details: CCM 3954, 24 h
Pseudomonas aeruginosa [2] = experiment: Antibacterial activity against Pseudomonas aeruginosa CCM 3955 after 24 hrs by microdilution method; format: functional; details: CCM 3955, 24 h
Enterococcus faecalis = experiment: Antibacterial activity against Enterococcus faecalis CCM 4224 after 24 hrs by microdilution method; format: functional; details: CCM 4224, 24 h
Staphylococcus aureus [3] = experiment: Antibacterial activity against Staphylococcus aureus CCM 4223 after 24 hrs by microdilution method; format: functional; details: CCM 4223, 24 h
Bacillus subtilis = experiment: Antibacterial activity against Bacillus subtilis after 24 hrs by microdilution method; format: functional
Streptococcus agalactiae = experiment: Antibacterial activity against Streptococcus agalactiae after 24 hrs by microdilution method; format: functional
Escherichia coli [4] = experiment: Antibacterial activity against Escherichia coli 16702 after 24 hrs by microdilution method; format: functional; details: Escherichia coli, 16702, 24 h
Pseudomonas aeruginosa [5] = experiment: Antibacterial activity against Pseudomonas aeruginosa 16575 after 24 hrs by microdilution method; format: functional; details: Pseudomonas aeruginosa, 16575, 24 h
Staphylococcus aureus [6] = experiment: Antibacterial activity against methicillin-resistant Staphylococcus aureus 4591 clinical isolates after 24 hrs by microdilution method; format: functional; details: Staphylococcus aureus, 4591, 24 h
[7] = tested on: Staphylococcus haemolyticus; experiment: Antibacterial activity against fluoroquinolne-resistant Staphylococcus haemolyticus 16568 after 24 hrs by microdilution method; format: functional; details: Staphylococcus haemolyticus, 16568, 24 h
[8] = tested on: Staphylococcus epidermidis; experiment: Antibacterial activity against Staphylococcus epidermidis 8700/B after 24 hrs by microdilution method; format: functional
Enterococcus faecium = experiment: Antibacterial activity against vancomycin-resistant Enterococcus faecium 419/ana clinical isolates after 24 hrs by microdilution method; format: functional
Salmonella enteritidis = experiment: Antibacterial activity against Salmonella enteritidis S2-25 after 24 hrs by microdilution method; format: functional, Salmonella enterica subsp. enterica serovar Enteritidis; details: Salmonella enterica, S2-25, 24 h
Acinetobacter baumannii = experiment: Antibacterial activity against Acinetobacter baumannii A3-08 after 24 hrs by microdilution method; format: functional; details: A3-08, 24 h
[9] = tested on: Stenotrophomonas maltophilia; experiment: Antibacterial activity against Stenotrophomonas maltophilia S2-23 after 24 hrs by microdilution method; format: functional; details: S2-23, 24 h
Burkholderia multivorans = experiment: Antibacterial activity against Burkholderia multivorans after 24 hrs by microdilution method; format: functional

Row | Compound | MIC (Escherichia coli [1]) [µg/mL] | MIC (Pseudomonas aeruginosa [2]) [µg/mL] | MIC (Enterococcus faecalis) [µg/mL] | MIC (Staphylococcus aureus [3]) [µg/mL] | MIC (Bacillus subtilis) [µg/mL] | MIC (Streptococcus agalactiae) [µg/mL] | MIC (Escherichia coli [4]) [µg/mL] | MIC (Pseudomonas aeruginosa [5]) [µg/mL] | MIC (Staphylococcus aureus [6]) [µg/mL] | MIC [7] [µg/mL] | MIC [8] [µg/mL] | MIC (Enterococcus faecium) [µg/mL] | MIC (Salmonella enteritidis) [µg/mL] | MIC (Acinetobacter baumannii) [µg/mL] | MIC [9] [µg/mL] | MIC (Burkholderia multivorans) [µg/mL]
1 | CCCCCCCCCCCCCCCCOP(=O)(CCN(CCN)CCN)OC[C@H]1O[C@@H](n2ccc(=O)[nH]c2=O)[C@H](O)[C@@H]1O (stereo partly specified) | 3.13 (≈ 4.73 µM) | 3.13 (≈ 4.73 µM) | 12.5 (≈ 18.9 µM) | 6.25 (≈ 9.44 µM) | 1.56 (≈ 2.36 µM) | 1.56 (≈ 2.36 µM) | 3.13 (≈ 4.73 µM) | 3.13 (≈ 4.73 µM) | 6.25 (≈ 9.44 µM) | 3.13 (≈ 4.73 µM) | 3.13 (≈ 4.73 µM) | 50 (≈ 75.5 µM) | 3.13 (≈ 4.73 µM) | 6.25 (≈ 9.44 µM) | 1.56 (≈ 2.36 µM) | 25 (≈ 37.8 µM)
2 | CCCCCCCCCCCCCCOP(=O)(CCN1CCC(N)C1)OC[C@H]1O[C@@H](n2ccc(=O)[nH]c2=O)[C@H](O)[C@@H]1O (stereo partly specified) | 3.13 (≈ 5.08 µM) | 3.13 (≈ 5.08 µM) | 6.25 (≈ 10.1 µM) | 12.5 (≈ 20.3 µM) | 1.56 (≈ 2.53 µM) | 3.13 (≈ 5.08 µM) | 3.13 (≈ 5.08 µM) | 3.13 (≈ 5.08 µM) | 25 (≈ 40.5 µM) | 6.25 (≈ 10.1 µM) | 3.13 (≈ 5.08 µM) | 50 (≈ 81.1 µM) | 6.25 (≈ 10.1 µM) | 6.25 (≈ 10.1 µM) | 12.5 (≈ 20.3 µM) | 50 (≈ 81.1 µM)
3 | CCCCCCCCCCCCCCOP(=O)(CCN(CCN)CCN)OC[C@H]1O[C@@H](n2ccc(=O)[nH]c2=O)[C@H](O)[C@@H]1O (stereo partly specified) | 12.5 (≈ 19.7 µM) | 3.13 (≈ 4.94 µM) | 100 (≈ 158 µM) | 25 (≈ 39.4 µM) | 6.25 (≈ 9.86 µM) | 6.25 (≈ 9.86 µM) | 6.25 (≈ 9.86 µM) | 6.25 (≈ 9.86 µM) | 12.5 (≈ 19.7 µM) | 3.13 (≈ 4.94 µM) | 3.13 (≈ 4.94 µM) | 100 (≈ 158 µM) | 12.5 (≈ 19.7 µM) | 25 (≈ 39.4 µM) | 6.25 (≈ 9.86 µM) | 12.5 (≈ 19.7 µM)
4 | CCCCCCCCCCCCCCCOP(=O)(CCN1CCC(N)C1)OC[C@H]1O[C@@H](n2ccc(=O)[nH]c2=O)[C@H](O)[C@@H]1O (stereo partly specified) | 6.25 (≈ 9.91 µM) | 12.5 (≈ 19.8 µM) | 6.25 (≈ 9.91 µM) | 6.25 (≈ 9.91 µM) | 3.13 (≈ 4.96 µM) | 3.13 (≈ 4.96 µM) | 6.25 (≈ 9.91 µM) | 12.5 (≈ 19.8 µM) | 6.25 (≈ 9.91 µM) | 6.25 (≈ 9.91 µM) | 6.25 (≈ 9.91 µM) | 25 (≈ 39.6 µM) | 6.25 (≈ 9.91 µM) | 6.25 (≈ 9.91 µM) | 6.25 (≈ 9.91 µM) | 50 (≈ 79.3 µM)
5 | CCCCCCCCCCCCCCCOP(=O)(CCN1C[C@@H](O)[C@@H](N)C1)OC[C@H]1O[C@@H](n2ccc(=O)[nH]c2=O)[C@H](O)[C@@H]1O (stereo partly specified) | 6.25 (≈ 9.66 µM) | 25 (≈ 38.7 µM) | 12.5 (≈ 19.3 µM) | 12.5 (≈ 19.3 µM) | 6.25 (≈ 9.66 µM) | 3.13 (≈ 4.84 µM) | 6.25 (≈ 9.66 µM) | 12.5 (≈ 19.3 µM) | 25 (≈ 38.7 µM) | 12.5 (≈ 19.3 µM) | 6.25 (≈ 9.66 µM) | 50 (≈ 77.3 µM) | 6.25 (≈ 9.66 µM) | 6.25 (≈ 9.66 µM) | 6.25 (≈ 9.66 µM) | > 200
6 | CCCCCCCCCCCCCCCOP(=O)(CCN(CCNC(=N)N)CCNC(=N)N)OC[C@H]1O[C@@H](n2ccc(=O)[nH]c2=O)[C@H](O)[C@@H]1O (stereo partly specified) | 3.13 (≈ 4.28 µM) | 6.25 (≈ 8.54 µM) | 25 (≈ 34.2 µM) | 6.25 (≈ 8.54 µM) | 3.13 (≈ 4.28 µM) | 3.13 (≈ 4.28 µM) | 3.13 (≈ 4.28 µM) | 6.25 (≈ 8.54 µM) | 6.25 (≈ 8.54 µM) | 6.25 (≈ 8.54 µM) | 3.13 (≈ 4.28 µM) | 50 (≈ 68.3 µM) | 3.13 (≈ 4.28 µM) | 6.25 (≈ 8.54 µM) | 3.13 (≈ 4.28 µM) | 12.5 (≈ 17.1 µM)
